Test results from patent US11179469B2, “Transdermal absorption preparation” (Nitto Denko Corporation, priority 2017, dated 2021).

Assay: Octanol/water partition coefficient of the drug (log P1)
Format: physicochemical
Conditions: base 10 logarithm
Source text: The octanol/water partition coefficient is the ratio of the distribution of a certain chemical substance respectively to n-octanol and water (ratio of the concentration in n-octanol phase and aqueous phase). It is used as an index showing hydrophobicity and transferability of the chemical substance, and can be measured by the flask shaking method prescribed in the Economic Development Cooperation Organization (OECD) Test Guideline 107 and the like or calculated using the calculation software (“Cache Workspace (registered trade mark)” manufactured by Fujitsu Limited) etc. and inputting the structural formula of the compound. The octanol/water partition coefficient of the polymer is calculated using the molecule structural formula in a monomer unit.

| Structure (SMILES) | logP1 (octanol/water partition coefficient of the drug) |
| --- | --- |
| CC(C)C[C@H](CN)CC(=O)O [pregabalin] | 0.89 |
| CC(C)(C)NCC(O)c1ccccc1Cl (centres unmarked) [Tulobuterol] | 2.55 |
